Values of other authors as cited in US20070098710A1, “Anxiolytic composition comprising essential oil derived from plants as active ingredients, anxiolytic comprising thereof, and a producing method thereof” (NATURE TECHNOLOGY, INC., priority 2004, published 2007).

How the values were obtained:
male ICR mice = settings: mouse, administered previously

Structure (SMILES) | change of the emotionality (inhibition of looking into hole) by restraint stress (male ICR mice) | solubility in ethanol (ethanol) | solubility in water (water)
CN1C(=O)CN=C(c2ccccc2)c2cc(Cl)ccc21 [diazepam] | improved | – | –
CC1CCC(C(C)C)C(O)C1 (stereo not drawn) [l-menthol, 5-methyl 2-(1-methylethyl)cyclohexanol] | – | soluble in ethanol | insoluble in water
